From the supplement of paper PMC10307832

Tests used:
Assay in all cases: relative viability (nuclei count vs DMSO), 5 days (fraction); higher = more cells survive
AZD6482 + Palbociclib = compound: Cc1cc([C@@H](C)Nc2ccccc2C(=O)O)c2nc(N3CCOCC3)cc(=O)n2c1 [AZD6482] + CC(=O)c1c(C)c2cnc(Nc3ccc(N4CCNCC4)cn3)nc2n(C2CCCC2)c1=O [Palbociclib] (partner 0.5 µM)
How it was run: (§1)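 Lung cancer cell lines were pin-tool dosed in 1536-well plates on the day after seeding, with either a lone drug or a fixed anchor-drug dose plus five library-drug doses (not always all listed) in √10 steps. Nuclei were counted on 4× images after 5 days. Relative viability is the ratio of treated-well to vehicle-well nuclei counts, with each value a median of duplicate plates.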

AZD6482 + AZD7762 = compound: Cc1cc([C@@H](C)Nc2ccccc2C(=O)O)c2nc(N3CCOCC3)cc(=O)n2c1 [AZD6482] + NC(=O)Nc1cc(-c2cccc(F)c2)sc1C(=O)N[C@H]1CCCNC1 [AZD7762] (partner 0.2 µM)
How it was run: as §1

AZD6482 + Bortezomib = compound: Cc1cc([C@@H](C)Nc2ccccc2C(=O)O)c2nc(N3CCOCC3)cc(=O)n2c1 [AZD6482] + CC(C)C[C@H](NC(=O)[C@H](Cc1ccccc1)NC(=O)c1cnccn1)B(O)O [Bortezomib] (partner 0.002 µM)
How it was run: as §1

[1] = compound: COc1cc2nc(N3CCCN(C)CC3)nc(NC3CCN(Cc4ccccc4)CC3)c2cc1OC + Cc1nc(NC(=O)N2CCC[C@H]2C(N)=O)sc1-c1ccnc(C(C)(C)C(F)(F)F)c1 [Alpelisib] (partner 2 µM)
How it was run: as §1

| Cell Line | relative viability (AZD6482 + Palbociclib; first compound 0.08 µM) | relative viability (AZD6482 + Palbociclib; first compound 0.253 µM) | relative viability (AZD6482 + Palbociclib; first compound 0.8 µM) | relative viability (AZD6482 + Palbociclib; first compound 2.53 µM) | relative viability (AZD6482 + Palbociclib; first compound 8 µM) | relative viability (AZD6482 + AZD7762; first compound 0.08 µM) | relative viability (AZD6482 + AZD7762; first compound 0.253 µM) | relative viability (AZD6482 + AZD7762; first compound 0.8 µM) | relative viability (AZD6482 + AZD7762; first compound 2.53 µM) | relative viability (AZD6482 + AZD7762; first compound 8 µM) | relative viability (AZD6482 + Bortezomib; first compound 0.08 µM) | relative viability (AZD6482 + Bortezomib; first compound 0.253 µM) | relative viability (AZD6482 + Bortezomib; first compound 0.8 µM) | relative viability (AZD6482 + Bortezomib; first compound 2.53 µM) | relative viability (AZD6482 + Bortezomib; first compound 8 µM) | relative viability ([1]; first compound 0.2 µM) | relative viability ([1]; first compound 0.6325 µM) | relative viability ([1]; first compound 2 µM) | relative viability ([1]; first compound 6.325 µM) |
| --- | --- | --- | --- | --- | --- | --- | --- | --- | --- | --- | --- | --- | --- | --- | --- | --- | --- | --- | --- |
| NCI-H2342 | 0.536 | 0.499 | 0.506 | 0.54 | 0.448 | 0.532 | 0.352 | 0.567 | 0.337 | 0.374 | – | – | – | – | – | – | – | – | – |
| HCC-15 | 0.652 | 0.631 | 0.77 | 0.676 | 0.633 | 1.24 | 1.4 | 1.26 | 1.18 | 1.11 | 0.926 | 0.99 | 1.08 | 0.904 | 1.04 | 0.886 | 0.842 | 0.875 | 0.687 |
| A-427 | 0.462 | 0.528 | 0.495 | 0.502 | 0.553 | 0.645 | 0.804 | 0.684 | 0.451 | 0.627 | 0.992 | 1.01 | 0.978 | 0.741 | 0.961 | 1.12 | 0.98 | 0.997 | 1.08 |
| NCI-H2228 | 0.374 | 0.565 | 0.682 | 0.653 | 0.679 | – | – | – | – | – | 0.754 | 0.986 | 0.91 | 0.849 | 1.13 | 0.587 | 0.685 | 0.661 | 0.409 |
| NCI-H1734 | 0.301 | 0.333 | 0.346 | 0.298 | 0.272 | 0.533 | 0.504 | 0.556 | 0.303 | 0.367 | 0.791 | 0.893 | 0.977 | 0.525 | 0.556 | 0.657 | 0.613 | 0.798 | 0.736 |
| PC-14 | 0.447 | 0.524 | 0.578 | 0.503 | 0.519 | 0.417 | 0.302 | 0.324 | 0.26 | 0.194 | 0.785 | 0.917 | 0.913 | 0.67 | 1.02 | 0.981 | 0.918 | 1.05 | 0.901 |
| NCI-H1915 | 0.478 | 0.524 | 0.529 | 0.49 | 0.521 | 0.672 | 0.538 | 0.669 | 0.631 | 0.639 | 0.861 | 0.86 | 1.04 | 0.849 | 1.05 | 1.06 | 0.998 | 1.1 | 1.1 |
| NCI-H1666 | 0.637 | 0.576 | 0.722 | 0.638 | 0.681 | 0.79 | 0.776 | 0.958 | 0.835 | 0.767 | 0.515 | 0.765 | 0.737 | 0.556 | 0.616 | 0.924 | 0.993 | 0.951 | 0.461 |
| HCC-366 | 0.334 | 0.367 | 0.385 | 0.35 | 0.229 | 0.23 | 0.243 | 0.253 | 0.179 | 0.25 | 0.944 | 0.969 | 1.06 | 0.84 | 0.742 | 0.519 | 0.558 | 0.468 | 0.283 |
| SK-MES-1 | 0.282 | 0.293 | 0.295 | 0.282 | 0.301 | – | – | – | – | – | – | – | – | – | – | 1.08 | 0.887 | 0.975 | 0.827 |
| SW 1573 | 0.296 | 0.351 | 0.328 | 0.282 | 0.218 | – | – | – | – | – | 0.92 | 0.86 | 0.877 | 0.613 | 0.633 | 0.614 | 0.696 | 0.729 | 0.724 |
| NCI-H661 | 0.41 | 0.43 | 0.41 | 0.387 | 0.364 | – | – | – | – | – | 0.71 | 0.608 | 0.723 | – | 0.622 | 0.556 | 0.64 | 0.809 | 0.774 |
| PC-3 [JPC-3] | 0.559 | 0.564 | 0.528 | 0.572 | 0.534 | 0.872 | 0.715 | 0.741 | 0.367 | 0.413 | 0.658 | 0.844 | 0.843 | 0.761 | 0.713 | 1.06 | 0.97 | 1.09 | 0.986 |
| Calu-6 | – | – | – | – | – | – | – | – | – | – | 0.889 | 0.973 | 0.978 | 0.823 | 0.889 | 0.884 | 0.926 | 1 | 0.976 |
| LC-2-ad | 0.478 | 0.539 | 0.537 | 0.521 | 0.399 | 0.842 | 0.774 | 0.821 | 0.662 | 0.593 | 1.07 | 0.962 | 1.1 | 0.754 | 0.926 | 0.883 | 0.89 | 0.943 | 0.896 |
| CAL-12T | 0.416 | 0.314 | 0.343 | 0.518 | 0.286 | 0.686 | 0.647 | 0.677 | 0.468 | 0.665 | 0.843 | – | 0.895 | 0.426 | 0.597 | 1.21 | 1.23 | 1.16 | 1.15 |
| RERF-LC-KJ | 0.961 | 0.981 | 1.03 | 0.838 | 0.808 | 0.867 | 0.893 | – | 0.812 | 0.838 | 0.825 | 0.907 | 0.895 | 0.921 | 0.865 | 0.905 | 0.878 | 0.902 | 0.661 |
| NCI-H1650 | 0.312 | 0.271 | 0.269 | 0.267 | 0.288 | – | – | – | – | – | 0.192 | – | 0.188 | 0.205 | 0.202 | – | – | – | – |
| BEN | 0.442 | 0.452 | 0.446 | 0.449 | 0.466 | 0.664 | 0.68 | 0.779 | 0.457 | 0.646 | 0.592 | 0.768 | 0.596 | 0.641 | 0.788 | 1.07 | 1 | 1.13 | 1.06 |
| EMC-BAC-2 | 0.494 | 0.491 | 0.518 | 0.46 | 0.429 | 1.03 | 0.958 | 1.02 | 0.818 | 0.679 | 1.02 | 1.07 | 1.12 | 0.838 | 0.948 | 0.765 | 0.69 | 0.784 | 0.77 |
